The values that follow come from patent US9856252B2, “2-(hetero)aryl-benzimidazole and imidazopyridine derivatives as inhibitors of asparagime emethyl transferase” (Cancer Therapeutics CRC Pty Ltd, priority 2013, dated 2018).

Structures are written as SMILES.

The term IC50 denotes the concentration that inhibits the measured activity by half.

Sequence of Full-length PRMT5 enzyme (NCBI Reference sequence NP_006100.2) co-expressed with His6-MEP50 (O14744 whole entry): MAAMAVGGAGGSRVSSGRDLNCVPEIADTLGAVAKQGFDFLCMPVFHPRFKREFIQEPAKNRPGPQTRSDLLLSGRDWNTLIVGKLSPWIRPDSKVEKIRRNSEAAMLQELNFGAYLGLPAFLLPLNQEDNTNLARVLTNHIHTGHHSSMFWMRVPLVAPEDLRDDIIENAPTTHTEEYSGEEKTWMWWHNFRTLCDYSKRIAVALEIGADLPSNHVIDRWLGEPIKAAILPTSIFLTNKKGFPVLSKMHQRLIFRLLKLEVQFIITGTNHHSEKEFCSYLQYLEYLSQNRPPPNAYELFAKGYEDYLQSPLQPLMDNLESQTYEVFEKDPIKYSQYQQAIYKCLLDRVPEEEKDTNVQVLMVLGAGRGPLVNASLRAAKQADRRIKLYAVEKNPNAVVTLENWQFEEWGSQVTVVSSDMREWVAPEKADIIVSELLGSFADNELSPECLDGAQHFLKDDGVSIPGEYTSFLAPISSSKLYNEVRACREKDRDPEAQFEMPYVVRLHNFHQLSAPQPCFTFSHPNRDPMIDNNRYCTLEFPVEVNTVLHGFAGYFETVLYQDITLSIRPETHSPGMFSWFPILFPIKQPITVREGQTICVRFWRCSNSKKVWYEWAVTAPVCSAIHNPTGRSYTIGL
Sequence of Full-length PRMT5 enzyme (NCBI Reference sequence NP_006100.2) co-expressed with His6-MEP50 (Q9BQA1 whole entry partner): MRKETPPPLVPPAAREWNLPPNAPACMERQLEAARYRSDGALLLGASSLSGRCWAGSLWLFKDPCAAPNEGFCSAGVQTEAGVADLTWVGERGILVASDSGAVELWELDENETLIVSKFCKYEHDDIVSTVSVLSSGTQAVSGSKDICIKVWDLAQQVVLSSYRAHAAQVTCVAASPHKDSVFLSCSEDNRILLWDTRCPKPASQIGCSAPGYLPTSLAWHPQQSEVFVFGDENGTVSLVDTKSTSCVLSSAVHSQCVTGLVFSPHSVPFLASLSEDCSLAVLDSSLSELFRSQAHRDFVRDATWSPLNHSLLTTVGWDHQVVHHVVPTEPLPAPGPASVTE

One assay deals with histone H4 Arginine 3 dimethylation mark in TE11 cells. The assay is described as follows: PRMT5 Biomarker Assay. It counts as cell-based. The settings on record: Homo sapiens, TE-11; TE11 cell line, 72 hours incubation, Di-Methyl Histone H4R3 ELISA corrected for total protein. As to the method: Compounds of the invention may be tested for potency to inhibit the histone H4 Arginine 3 dimethylation mark in the following assay:
The cell line TE11 was seeded at a density of 12,000 cells per well in 96 well tissue culture plates in DME medium and 10% foetal bovine serum, and allowed to adhere overnight under standard culture conditions (37° C., 5% CO2). […] The methylation level was determined using the EpiQuik™ Global Di-Methyl Histone H4R3 Quantification ELISA Kit (Epigentek, Farmingdale, N.Y.) as per the manufacturer's recommendations; in parallel the total protein amount in the lysate was quantified using a Lowry protein assay.
A general note: In an ELISA, binding on a coated surface is turned into a signal by an enzyme label.
In the case of `c1ccc(OCc2ccc(-c3nc4cc(C5CCCNC5)cnc4[nH]3)cc2)cc1` (centres unmarked) [Example 16, 2-(4-(phenoxymethyl)phenyl)-6-(piperidin-3-yl)-3H-imidazo[4,5-b]pyridine], half-maximal inhibition (IC50) was put at 1830 nM.
On the same count and under the same terms, to `c1ccc(COc2ccc(-c3nc4ccc(C5CCNCC5)nc4[nH]3)cc2)cc1` [Example 40, 2-(4-(benzyloxy)phenyl)-5-(piperidin-4-yl)-3H-imidazo[4,5-b]pyridine] belongs 731 nM; to `Clc1ccnc2[nH]c(-c3ccc(OCc4ccccc4)cc3)nc12` [Example 4, 2-(4-(benzyloxy)phenyl)-7-chloro-3H-imidazo[4,5-b]pyridine], 127 nM.
The same measure, in the same setting: then `C1=C(c2ccc3nc(-c4ccc(OCc5ccccc5)cc4)[nH]c3n2)CCNC1` [Example 45, 2-(4-(benzyloxy)phenyl)-5-(1,2,3,6-tetrahydropyridin-4-yl)-3H-imidazo[4,5-b]pyridine], with 1210 nM.
Still for that read-out and setting: to `c1ccc(OCc2ccc(-c3nc4cc(C5CCNCC5)cnc4[nH]3)cc2)cc1` [Example 9, 2-(4-(phenoxymethyl)phenyl)-6-(piperidin-4-yl)-3H-imidazo[4,5-b]pyridine] belongs 645 nM.

The target of the next assay is Full-length PRMT5 enzyme (NCBI Reference sequence NP_006100.2) co-expressed with His6-MEP50 (Homo sapiens (Human), UniProt O14744). Put plainly: PRMT5 Biochemical Assay. The conditions noted are these: histone H4 derived peptide substrate 200 nM, 1 μM S-Adenosyl methionine, 4 hours at 37° C., Transcreener EPIGEN fluorescence polarisation. Here is the method:
Compounds of the invention may be tested for in vitro activity in the following assay: A histone H4 derived peptide is used as substrate (amino acid sequence: […]N H2). Full-length PRMT5 enzyme (NCBI Reference sequence NP_006100.2) was co-expressed with His6-MEP50 in insect cells and purified via Nickel immobilized metal affinity and gel filtration chromatography (“the enzyme”).
The 6 μL assay reactions are run in Greiner brand black 384-well low volume plates. All reactions contained assay buffer (phosphate buffered saline, 0.01% (v/v) Tween-20, 0.01% (w/v) albumin from chicken egg white, 1 mM dithiothreitol, 200 nM peptide substrate, 1 μM S-Adenosyl methionine, and 15 ng/reaction enzyme, with the enzyme being omitted from negative control reactions. Compounds were added in a volume of 100 nL from dilution series prepared in DMSO, positive and negative control reactions receiving the same volume DMSO without compound. The plates were sealed with adhesive seals and incubated for 4 hours at 37° C. Reaction progress was measured using the Transcreener™ EPIGEN methyltransferase assay (BellBrook Labs, Madison, Wis.) as recommended by the manufacturer. To each reaction 2 μL detection mix were added, containing coupling enzymes, fluorescence polarisation tracer, and AMP antibody. Plates were incubated for 90 minutes before being read on a PerkinElmer EnVision™ plate reader in fluorescence polarisation mode.
As to `c1ccc(OCc2ccc(-c3nc4cc(C5CCCNC5)cnc4[nH]3)cc2)cc1` (centres unmarked) [Example 16, 2-(4-(phenoxymethyl)phenyl)-6-(piperidin-3-yl)-3H-imidazo[4,5-b]pyridine], the IC50 was determined as 107 nM.
Still for that read-out and setting: then `c1ccc(COc2ccc(-c3nc4ccc(C5CCNCC5)nc4[nH]3)cc2)cc1` [Example 40, 2-(4-(benzyloxy)phenyl)-5-(piperidin-4-yl)-3H-imidazo[4,5-b]pyridine], with 223 nM; and `NCC1CCN(c2ccc3nc(-c4ccc(OCc5ccccc5)cc4)[nH]c3n2)CC1` [Example 55], with 426 nM; and `CS(=O)(=O)N1CCN(c2ccc3nc(-c4ccc(OCc5ccccc5)cc4)[nH]c3n2)CC1` [Example 91, 2-(4-(benzyloxy)phenyl)-5-(4-(methylsulfonyl)piperazin-1-yl)-3H-imidazo[4,5-b]pyridine], with 820 nM.
Same read-out and setting: to `Fc1cc(-c2nc3cc(C4CCNCC4)cnc3[nH]2)ccc1OCc1ccccc1` [Example 65, 2-(4-(benzyloxy)-3-fluorophenyl)-6-(piperidin-4-yl)-3H-imidazo[4,5-b]pyridine] belongs 276 nM.
Same read-out and setting: to `c1ccc(COc2ccc(-c3nc4ccc(-c5cncnc5)nc4[nH]3)cc2)cc1` [Example 106] belongs 9000 nM; to `CN1CCCC(c2ccc3nc(-c4ccc(COc5ccccc5)cc4)[nH]c3n2)C1` (centres unmarked) [Example 99, 5-(1-methylpiperidin-3-yl)-2-(4-(phenoxymethyl)phenyl)-3H-imidazo[4,5-b]pyridine], 148 nM.
`CN1CCC(c2ccc3nc(-c4ccc(COc5ccccc5)cc4)[nH]c3n2)CC1` [Example 86, 5-(1-methylpiperidin-4-yl)-2-(4-(phenoxymethyl)phenyl)-3H-imidazo[4,5-b]pyridine] yielded an IC50 of 151 nM.
Same read-out and setting: then `CCS(=O)(=O)N1CCN(c2ccc3nc(-c4ccc(OCc5ccccc5)c(OC)c4)[nH]c3n2)CC1` [Example 75, 2-(4-(benzyloxy)-3-methoxyphenyl)-5-(4-(ethylsulfonyl)piperazin-1-yl)-3H-imidazo[4,5-b]pyridine], with 306 nM.
On the same count and under the same terms, then `O=S1(=O)CCN(c2ccc3nc(-c4ccc(OCc5ccccc5)cc4)[nH]c3n2)CC1` [Example 25, 4-(2-(4-(benzyloxy)phenyl)-3H-imidazo[4,5-b]pyridin-5-yl)thiomorpholine 1,1-dioxide], with 619 nM; and `c1ccc(COc2ccc(-c3nc4cc(C5CCNCC5)cnc4[nH]3)cc2-c2cccnc2)cc1` [Example 64, 2-(4-(benzyloxy)-3-(pyridin-3-yl)phenyl)-6-(piperidin-4-yl)-3H-imidazo[4,5-b]pyridine], with 336 nM.
The molecule `CS(=O)(=O)N1CCC(c2ccc3nc(-c4ccc(OCc5ccccc5)cc4)[nH]c3n2)CC1` [Example 87, 2-(4-(benzyloxy)phenyl)-5-(1-(methylsulfonyl)piperidin-4-yl)-3H-imidazo[4,5-b]pyridine] gave an IC50 of 355 nM.
The same measure, in the same setting: then `CCS(=O)(=O)N1CC=C(c2ccc3nc(-c4ccc(OCc5ccccc5)cc4)[nH]c3n2)CC1` [Example 97, 2-(4-(benzyloxy)phenyl)-5-(1-(ethylsulfonyl)-1,2,3,6-tetrahydropyridin-4-yl)-3H-imidazo[4,5-b]pyridine], with 217 nM; and `O=C(Nc1ccc(-c2nc3cccnc3[nH]2)cc1)c1ccccc1` [Example 3, N-(4-(3H-imidazo[4,5-b]pyridin-2-yl)phenyl)benzamide], with 3970 nM; and `CN(C)C(=O)Cc1ccnc2[nH]c(-c3ccc(OCc4ccccc4)cc3)nc12` [Example 94, 2-(2-(4-(benzyloxy)phenyl)-3H-imidazo[4,5-b]pyridin-7-yl)-N,N-dimethylacetamide], with 1020 nM.
Still for that read-out and setting: then `Cn1ccc(-c2ccc3nc(-c4ccc(COc5ccccc5)cc4)[nH]c3n2)n1` [Example 38, 5-(1-methyl-1H-pyrazol-3-yl)-2-(4-(phenoxymethyl)phenyl)-3H-imidazo[4,5-b]pyridine], with 2390 nM; and `c1ccc(COc2ccc(-c3nc4ccc(N5CCNCC5)nc4[nH]3)cc2)cc1` [Example 47, 2-(4-(benzyloxy)phenyl)-5-(piperazin-1-yl)-3H-imidazo[4,5-b]pyridine], with 197 nM.
On the same count and under the same terms, to `Fc1ccccc1COc1ccc(-c2nc3ccc(N4CCNCC4)nc3[nH]2)cc1` [Example 57] belongs 981 nM; to `CN1CCC(c2cnc3[nH]c(-c4ccc(COc5ccccc5)cc4)nc3c2)CC1` [Example 11, 6-(1-methylpiperidin-4-yl)-2-(4-(phenoxymethyl)phenyl)-3H-imidazo[4,5-b]pyridine], 482 nM; to `Cn1cc(-c2cc(-c3nc4cc(C5CCNCC5)cnc4[nH]3)ccc2OCc2ccccc2)cn1` [Example 63, 2-(4-(benzyloxy)-3-(1-methyl-1H-pyrazol-4-yl)phenyl)-6-(piperidin-4-yl)-3H-imidazo[4,5-b]pyridine], 215 nM.
`FC(F)(F)c1ccccc1COc1ccc(-c2nc3ccc(N4CCNCC4)nc3[nH]2)cc1` [Example 60] had an IC50 of 1660 nM.
For the molecule `Fc1cccc(COc2ccc(-c3nc4ccc(N5CCNCC5)nc4[nH]3)cc2)c1` [Example 58], the IC50 is 333 nM.
For the molecule `CCS(=O)(=O)N1CCC(c2ccc3nc(-c4ccc(OCc5ccccc5)cc4)[nH]c3n2)CC1` [Example 90, 2-(4-(benzyloxy)phenyl)-5-(1-(ethylsulfonyl)piperidin-4-yl)-3H-imidazo[4,5-b]pyridine], the IC50 was found to be 148 nM.
Same read-out and setting: then `c1ccc(COc2ccc(-c3nc4ccc(C5CC5)nc4[nH]3)cc2)cc1` [Example 105], with 1500 nM.
